ChEMBL document CHEMBL1201862, “PubChem BioAssay data set” (2004)
Activity calls are given as the source filed them.

Legend:
[1] = target: Peroxisome proliferator-activated receptor gamma/Nuclear receptor coactivator 1 (Homo sapiens, UniProt P37231); type: functional;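 note: agonist potency as compounds enhance coactivator SRC-1 recruitment to PPARgamma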
[2] = target: Peroxisome proliferator-activated receptor gamma/Nuclear receptor coactivator 3 (Homo sapiens, UniProt P37231); type: functional;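 note: agonist potency for raising coactivator recruitment to the receptor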
[3] = target: Peroxisome proliferator-activated receptor gamma/Nuclear receptor coactivator 2 (Homo sapiens, UniProt P37231); type: functional;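 note: agonist potency for raising coactivator recruitment to the receptor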
[4] = HEp-2 cell cytotoxicity, dose response, cytotoxicity control for RSV inhibitor project, HTS (AID 2410); type: functional; settings: human respiratory syncytial virus
[5] = cytotoxicity in KRAS-transformed pancreatic duct cells, primary screen, cell-based, fluorescence, HTS (AID 431); type: functional; settings: Homo sapiens;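 note: cell line used: HPDE-C7K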
[6] = cytotoxicity in HPDE-C7 cells, cell-based, fluorescence, HTS (AID 430); type: functional; settings: Homo sapiens
[7] = target: T1, Leucine aminopeptidase (Plasmodium falciparum 3D7, UniProt Q8IL11); assay: P. falciparum M17LAP inhibitors, primary screen, biochemical, fluorogenic H-Leu-NHMec substrate, 1536-well (AID 1619); type: functional
T1 sequence (Q8IL11 whole entry): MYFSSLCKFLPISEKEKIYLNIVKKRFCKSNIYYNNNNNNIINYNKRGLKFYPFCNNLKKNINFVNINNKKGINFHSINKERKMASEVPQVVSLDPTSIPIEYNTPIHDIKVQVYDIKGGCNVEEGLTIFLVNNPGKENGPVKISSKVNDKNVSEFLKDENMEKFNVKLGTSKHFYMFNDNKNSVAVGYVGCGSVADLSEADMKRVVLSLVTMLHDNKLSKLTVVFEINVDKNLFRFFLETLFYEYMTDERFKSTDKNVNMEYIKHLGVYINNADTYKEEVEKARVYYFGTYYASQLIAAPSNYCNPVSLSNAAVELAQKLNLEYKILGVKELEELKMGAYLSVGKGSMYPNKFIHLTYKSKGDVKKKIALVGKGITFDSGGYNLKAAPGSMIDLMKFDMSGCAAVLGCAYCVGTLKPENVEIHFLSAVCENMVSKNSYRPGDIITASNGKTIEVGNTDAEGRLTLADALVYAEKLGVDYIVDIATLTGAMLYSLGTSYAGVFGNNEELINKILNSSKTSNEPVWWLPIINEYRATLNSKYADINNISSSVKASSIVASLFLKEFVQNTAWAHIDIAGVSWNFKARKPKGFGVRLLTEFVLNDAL

[8] = Luminescence Cell-Based Dose Response HTS to Identify Activators of Luciferase Translation or Activity in H4 […] Cells. [Related pubchem assays: 1829 (Project Summary), 1814 (Primary HTS)]; type: functional
[9] = A Cell Based Secondary Assay To Explore Cytotoxicity of Compounds that Sensitize Mycobacterium Tuberculosis to Beta-Lactam Antibiotics.; type: functional
[10] = target: T2, Replicative DNA helicase DnaB (Mycobacterium tuberculosis, UniProt P9WMR3); assay: DnaB intein splicing inhibitors, dose response, biochemical, cell-free fluorescence (AID 449749); type: functional
T2 sequence (P9WMR3 whole entry): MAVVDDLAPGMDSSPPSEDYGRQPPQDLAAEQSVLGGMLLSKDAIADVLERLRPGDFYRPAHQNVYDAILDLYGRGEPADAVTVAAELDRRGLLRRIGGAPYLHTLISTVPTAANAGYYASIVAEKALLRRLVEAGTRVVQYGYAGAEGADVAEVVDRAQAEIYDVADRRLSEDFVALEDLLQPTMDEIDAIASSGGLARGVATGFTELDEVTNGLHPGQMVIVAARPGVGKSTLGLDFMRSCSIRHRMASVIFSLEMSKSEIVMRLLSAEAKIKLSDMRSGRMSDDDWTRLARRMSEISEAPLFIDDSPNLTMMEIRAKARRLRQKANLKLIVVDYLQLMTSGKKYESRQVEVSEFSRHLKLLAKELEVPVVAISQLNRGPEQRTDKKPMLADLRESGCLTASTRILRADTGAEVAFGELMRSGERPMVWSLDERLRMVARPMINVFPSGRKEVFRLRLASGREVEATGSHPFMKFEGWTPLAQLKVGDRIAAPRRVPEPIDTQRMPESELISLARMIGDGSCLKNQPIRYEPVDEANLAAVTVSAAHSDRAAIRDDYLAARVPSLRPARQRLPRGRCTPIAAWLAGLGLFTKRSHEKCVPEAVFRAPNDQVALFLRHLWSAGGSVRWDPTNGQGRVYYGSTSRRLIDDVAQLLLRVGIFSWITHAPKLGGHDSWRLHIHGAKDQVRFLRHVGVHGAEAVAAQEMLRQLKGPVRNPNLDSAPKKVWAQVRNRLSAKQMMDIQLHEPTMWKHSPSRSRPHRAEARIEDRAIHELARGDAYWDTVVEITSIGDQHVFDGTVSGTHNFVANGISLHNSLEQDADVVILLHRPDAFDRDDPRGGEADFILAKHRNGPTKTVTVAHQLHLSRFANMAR

[11] = target: T3, Protein RecA (Mycobacterium tuberculosis, UniProt P9WHJ3); assay: Fluorescence Cell-Free Homogeneous Dose Retest to Identify Inhibitors of RecA-Intein Splicing Activity. [Related pubchem assays (depositor defined):AID2097, AID2223, AID489010, AID492950]; type: functional
T3 sequence (P9WHJ3 whole entry): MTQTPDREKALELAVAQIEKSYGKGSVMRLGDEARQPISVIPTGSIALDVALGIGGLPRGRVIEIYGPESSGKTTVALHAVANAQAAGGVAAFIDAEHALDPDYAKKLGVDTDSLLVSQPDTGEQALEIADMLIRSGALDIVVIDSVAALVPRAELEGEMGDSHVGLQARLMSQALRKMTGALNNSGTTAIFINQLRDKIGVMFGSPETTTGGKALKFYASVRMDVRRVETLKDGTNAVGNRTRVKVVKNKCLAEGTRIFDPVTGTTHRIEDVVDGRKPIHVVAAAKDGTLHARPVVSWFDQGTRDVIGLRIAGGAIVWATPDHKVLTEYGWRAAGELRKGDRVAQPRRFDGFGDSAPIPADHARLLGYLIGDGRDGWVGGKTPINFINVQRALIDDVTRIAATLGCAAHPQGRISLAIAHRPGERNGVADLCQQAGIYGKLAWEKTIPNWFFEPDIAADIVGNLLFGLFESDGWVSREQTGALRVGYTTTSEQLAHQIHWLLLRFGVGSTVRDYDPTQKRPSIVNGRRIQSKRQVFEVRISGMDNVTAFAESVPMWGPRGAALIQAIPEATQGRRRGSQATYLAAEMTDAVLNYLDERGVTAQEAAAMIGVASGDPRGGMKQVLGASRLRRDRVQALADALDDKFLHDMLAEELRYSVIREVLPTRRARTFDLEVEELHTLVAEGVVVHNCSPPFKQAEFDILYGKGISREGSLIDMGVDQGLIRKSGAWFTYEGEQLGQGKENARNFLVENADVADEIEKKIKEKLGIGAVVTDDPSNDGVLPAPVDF

[12] = cells; type: functional, cell-based
[13] = Luminescence-based counterscreen assay for KLF5 inhibitors: dose response cell-based high throughput screening assay to identify cytotoxic compounds using the IEC-6 intestinal epithelial cell line. [Related pubchem assays: 1700 (Primary screen.), 1834 (Confirmation screen.), 1858 (Summary AID.), 1905 (Counterscreen.)]; type: functional
[14] = target: T4, Microphthalmia-associated transcription factor (Homo sapiens, UniProt O75030); assay: TRPM1 promoter luciferase signal decrease, dose response, MITF inhibitor project, cell-based, SK-MEL-5, cherry-picked, set 3 (AID 493073); type: functional
T4 sequence (O75030 whole entry): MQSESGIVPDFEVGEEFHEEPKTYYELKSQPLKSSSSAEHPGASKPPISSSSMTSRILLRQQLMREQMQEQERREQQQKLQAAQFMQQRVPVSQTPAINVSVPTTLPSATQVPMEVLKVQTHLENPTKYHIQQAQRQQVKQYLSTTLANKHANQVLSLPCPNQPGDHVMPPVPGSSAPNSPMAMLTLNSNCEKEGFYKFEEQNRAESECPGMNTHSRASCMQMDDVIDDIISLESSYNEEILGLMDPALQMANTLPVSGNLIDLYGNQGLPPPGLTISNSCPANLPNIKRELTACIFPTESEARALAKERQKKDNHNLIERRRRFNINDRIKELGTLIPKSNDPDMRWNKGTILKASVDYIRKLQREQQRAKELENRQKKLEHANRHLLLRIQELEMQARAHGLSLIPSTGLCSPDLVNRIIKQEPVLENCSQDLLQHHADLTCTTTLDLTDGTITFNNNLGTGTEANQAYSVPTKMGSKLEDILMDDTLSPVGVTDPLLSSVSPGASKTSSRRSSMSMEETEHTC

[15] = cells; type: functional, cell-based; remark: listed apart in the source
[16] = cells; type: functional
[17] = Luminescence Cell-Based Dose Response to Identify Activators of Luciferase Translation or Activity in H4-C Neuroglioblastoma Cells. [Related pubchem assays: 1829 (Project Summary), 1814 (Primary HTS)]; type: functional
[18] = tested on: H4; assay: Luminescence Cell-Based Dose Response HTS to Identify Activators of 5'UTR Stem-Loop Driven Prion Protein mRNA Translation in H4 Neuroglioblastoma Cells. [Related pubchem assays: 1829 (Project Summary), 1814 (Primary HTS)]; type: functional; settings: Homo sapiens
[19] = Luminescence Cell-Based Dose Confirmation to Identify Activators of 5'UTR Stem-Loop Driven Alpha-Synuclein mRNA Translation in H4 Neuroglioblastoma Cells. [Related pubchem assays: 1829 (Project Summary), 1814 (Primary HTS)]; type: functional
[20] = Luminescence Cell-Based Dose Response to Identify Activators of 5'UTR Stem-Loop Driven Prion Protein mRNA Translation in H4-C Neuroglioblastoma Cells. [Related pubchem assays: 1829 (Project Summary), 1814 (Primary HTS)]; type: functional
[21] = inhibitors of firefly luciferase expression or activity, dose response, H4 neuroglioma cells, luminescence (AID 1990); type: functional, cell-based
[22] = cytotoxicity in HEK-293T cells, dose response, cytotoxicity control for TCR NF-kB inhibitor project, luminescence, T-cell screen hits (AID 489026); type: functional, cell-based;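 note: cells exposed to compound about 14 hours before the viability readout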
[23] = inhibitors of SNCA 5'UTR-driven reporter translation, confirmation, H4 neuroglioma cells, luminescence (AID 1988); type: functional, cell-based
[24] = Luminescence Cell-Based Dose Response HTS to Identify Inhibitors of 5'UTR Stem-Loop Driven Prion Protein mRNA Translation in H4 Neuroglioblastoma Cells. [Related pubchem assays: 1827 (Project Summary), 1813 (Primary HTS)]; type: functional
[25] = target: Luciferin 4-monooxygenase (Photinus pyralis, UniProt P08659); assay: firefly luciferase enzyme inhibitors, dose response, biochemical, luminescence (AID 1891)
[26] = Luminescence Cell-Based Dose Confirmation HTS to Identify Inhibitors of Platelet Dense Granule Release. [Related pubchem assays: 1663 (Primary HTS), 1678 (Summary of Project)]; type: functional

Peroxisome proliferator-activated receptor gamma/Nuclear receptor coactivator 1, sequence (P37231 whole entry): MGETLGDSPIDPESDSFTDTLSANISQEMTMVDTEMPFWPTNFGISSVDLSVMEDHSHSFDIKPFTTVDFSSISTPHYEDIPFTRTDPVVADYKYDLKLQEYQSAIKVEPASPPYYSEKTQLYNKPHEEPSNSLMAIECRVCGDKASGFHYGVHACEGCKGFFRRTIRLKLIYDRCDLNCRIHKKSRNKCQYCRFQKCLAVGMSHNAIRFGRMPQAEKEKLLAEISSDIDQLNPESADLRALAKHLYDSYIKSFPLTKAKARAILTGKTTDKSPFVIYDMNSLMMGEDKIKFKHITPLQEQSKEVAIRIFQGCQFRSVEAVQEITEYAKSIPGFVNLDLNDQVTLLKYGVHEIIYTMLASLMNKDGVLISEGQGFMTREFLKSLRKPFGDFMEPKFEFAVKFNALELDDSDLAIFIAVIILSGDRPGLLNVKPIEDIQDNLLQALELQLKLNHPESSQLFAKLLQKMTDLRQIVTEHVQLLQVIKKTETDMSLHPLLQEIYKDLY
Peroxisome proliferator-activated receptor gamma/Nuclear receptor coactivator 1, sequence (Q15788 whole entry, further chain): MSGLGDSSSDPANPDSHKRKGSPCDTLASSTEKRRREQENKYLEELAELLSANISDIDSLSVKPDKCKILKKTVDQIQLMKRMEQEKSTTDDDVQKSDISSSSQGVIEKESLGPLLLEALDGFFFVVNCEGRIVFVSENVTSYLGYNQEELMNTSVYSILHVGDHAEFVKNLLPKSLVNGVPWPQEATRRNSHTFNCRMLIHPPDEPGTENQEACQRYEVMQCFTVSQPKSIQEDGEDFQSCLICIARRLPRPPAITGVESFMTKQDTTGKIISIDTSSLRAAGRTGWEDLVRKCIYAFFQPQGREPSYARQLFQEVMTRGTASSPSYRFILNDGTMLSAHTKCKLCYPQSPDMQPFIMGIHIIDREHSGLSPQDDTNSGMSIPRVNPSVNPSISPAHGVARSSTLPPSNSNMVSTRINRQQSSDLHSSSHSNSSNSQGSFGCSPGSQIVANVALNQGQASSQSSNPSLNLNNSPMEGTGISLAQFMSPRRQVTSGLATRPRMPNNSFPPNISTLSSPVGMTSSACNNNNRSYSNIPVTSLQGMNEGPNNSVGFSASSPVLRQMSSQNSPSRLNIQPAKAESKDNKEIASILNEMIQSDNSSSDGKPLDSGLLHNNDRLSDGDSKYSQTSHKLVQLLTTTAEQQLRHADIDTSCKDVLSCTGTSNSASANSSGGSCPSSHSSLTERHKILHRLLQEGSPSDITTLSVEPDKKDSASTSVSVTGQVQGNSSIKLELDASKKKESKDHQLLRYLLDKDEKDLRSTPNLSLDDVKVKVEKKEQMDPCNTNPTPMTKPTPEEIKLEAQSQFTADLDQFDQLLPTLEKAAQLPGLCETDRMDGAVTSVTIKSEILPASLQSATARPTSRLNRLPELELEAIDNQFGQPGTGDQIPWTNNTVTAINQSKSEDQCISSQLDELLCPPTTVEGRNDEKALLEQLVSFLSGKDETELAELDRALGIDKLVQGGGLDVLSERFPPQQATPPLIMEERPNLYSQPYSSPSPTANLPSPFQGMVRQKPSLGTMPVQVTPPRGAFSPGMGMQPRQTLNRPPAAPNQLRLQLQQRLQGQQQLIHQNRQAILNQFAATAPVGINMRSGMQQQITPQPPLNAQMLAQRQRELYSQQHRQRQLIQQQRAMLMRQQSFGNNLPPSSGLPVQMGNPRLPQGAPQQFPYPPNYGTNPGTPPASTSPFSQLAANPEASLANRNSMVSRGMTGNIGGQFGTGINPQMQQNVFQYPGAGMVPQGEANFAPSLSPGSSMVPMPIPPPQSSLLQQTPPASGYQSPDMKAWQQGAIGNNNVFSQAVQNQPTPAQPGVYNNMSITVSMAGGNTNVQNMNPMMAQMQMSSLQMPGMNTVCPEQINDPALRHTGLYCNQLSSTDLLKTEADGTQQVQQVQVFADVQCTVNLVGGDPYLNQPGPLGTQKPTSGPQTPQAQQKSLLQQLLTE
Peroxisome proliferator-activated receptor gamma/Nuclear receptor coactivator 3, sequence (P37231 whole entry): as the sequence (P37231 whole entry) above
Peroxisome proliferator-activated receptor gamma/Nuclear receptor coactivator 3, sequence (Q9Y6Q9 whole entry, further chain): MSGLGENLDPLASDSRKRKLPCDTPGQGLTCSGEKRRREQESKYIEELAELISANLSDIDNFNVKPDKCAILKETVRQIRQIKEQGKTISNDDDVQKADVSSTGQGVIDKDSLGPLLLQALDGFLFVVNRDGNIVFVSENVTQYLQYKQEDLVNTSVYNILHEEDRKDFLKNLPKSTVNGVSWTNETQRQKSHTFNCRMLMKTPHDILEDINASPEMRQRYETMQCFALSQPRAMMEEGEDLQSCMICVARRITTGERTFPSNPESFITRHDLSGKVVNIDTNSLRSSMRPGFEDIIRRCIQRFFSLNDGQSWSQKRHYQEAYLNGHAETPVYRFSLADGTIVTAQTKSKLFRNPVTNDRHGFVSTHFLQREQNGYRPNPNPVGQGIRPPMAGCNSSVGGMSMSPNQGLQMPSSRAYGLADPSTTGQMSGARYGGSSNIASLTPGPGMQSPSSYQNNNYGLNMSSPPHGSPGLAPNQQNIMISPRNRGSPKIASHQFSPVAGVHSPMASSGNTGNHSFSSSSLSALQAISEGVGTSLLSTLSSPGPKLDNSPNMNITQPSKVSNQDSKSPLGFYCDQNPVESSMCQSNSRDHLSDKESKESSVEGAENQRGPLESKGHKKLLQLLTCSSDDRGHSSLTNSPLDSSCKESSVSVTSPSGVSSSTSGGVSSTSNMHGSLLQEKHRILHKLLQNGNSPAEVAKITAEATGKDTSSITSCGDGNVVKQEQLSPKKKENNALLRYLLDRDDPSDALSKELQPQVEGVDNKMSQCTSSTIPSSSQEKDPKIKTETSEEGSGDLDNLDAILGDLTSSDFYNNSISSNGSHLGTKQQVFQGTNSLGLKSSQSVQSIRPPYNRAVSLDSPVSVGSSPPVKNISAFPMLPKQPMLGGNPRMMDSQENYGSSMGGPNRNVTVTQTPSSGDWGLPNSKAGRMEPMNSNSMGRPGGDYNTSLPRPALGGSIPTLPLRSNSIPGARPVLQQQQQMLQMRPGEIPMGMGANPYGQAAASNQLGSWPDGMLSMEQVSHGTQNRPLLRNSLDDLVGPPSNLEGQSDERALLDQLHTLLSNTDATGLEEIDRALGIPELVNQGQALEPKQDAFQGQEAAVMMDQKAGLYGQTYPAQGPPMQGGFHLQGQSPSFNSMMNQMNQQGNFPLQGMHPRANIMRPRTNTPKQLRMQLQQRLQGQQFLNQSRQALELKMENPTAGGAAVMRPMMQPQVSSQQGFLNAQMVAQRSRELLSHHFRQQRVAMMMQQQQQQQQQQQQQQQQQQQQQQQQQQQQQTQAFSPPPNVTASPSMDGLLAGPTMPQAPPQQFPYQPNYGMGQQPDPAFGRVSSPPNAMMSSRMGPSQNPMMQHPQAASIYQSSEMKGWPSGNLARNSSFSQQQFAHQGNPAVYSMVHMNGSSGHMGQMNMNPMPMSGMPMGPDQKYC
Luciferin 4-monooxygenase, sequence (P08659 whole entry): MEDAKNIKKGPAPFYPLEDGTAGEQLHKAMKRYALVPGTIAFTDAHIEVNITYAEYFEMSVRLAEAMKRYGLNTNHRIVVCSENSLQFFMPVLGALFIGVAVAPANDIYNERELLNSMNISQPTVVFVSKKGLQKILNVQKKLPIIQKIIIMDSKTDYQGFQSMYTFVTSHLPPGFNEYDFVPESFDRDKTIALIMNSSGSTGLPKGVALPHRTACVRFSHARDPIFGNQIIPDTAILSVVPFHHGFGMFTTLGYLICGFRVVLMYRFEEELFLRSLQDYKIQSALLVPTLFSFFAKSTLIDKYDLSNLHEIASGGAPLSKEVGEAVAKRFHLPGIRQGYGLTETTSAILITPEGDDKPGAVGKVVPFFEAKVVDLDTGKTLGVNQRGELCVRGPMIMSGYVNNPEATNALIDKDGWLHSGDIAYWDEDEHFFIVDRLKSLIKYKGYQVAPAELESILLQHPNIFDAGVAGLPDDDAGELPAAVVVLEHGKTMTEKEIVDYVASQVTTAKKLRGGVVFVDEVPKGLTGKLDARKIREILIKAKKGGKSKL

SMILES: COc1ccc(CC(=O)NCc2nnc(SCC(=O)Nc3cccc(F)c3)n2C)cc1
- EC50 [1]: > 79.4 µM (not active)
- EC50 [2]: > 79.4 µM (not active)
- EC50 [3]: > 79.4 µM (not active)

SMILES: CCOc1ccc(S(=O)(=O)Nc2cc(Sc3nc[nH]n3)c3oc(=O)sc3c2)cc1
- CC50 [4]: 26.2 µM (active)
- EC50 [5]: 13.8 µM (active)
- EC50 [6]: 18.6 µM (active)

SMILES: N#C/C(=C\c1cccs1)Sc1nc2ccccc2s1
- EC50 [5]: 16.3 µM (active)
- EC50 [6]: 17.3 µM (active)

SMILES: CC1=NNC(=O)C1CC(=O)N/N=C/C(C)=C/c1ccccc1 (stereo unspecified)
- IC50 [7]: 52.8 µM (active)

SMILES: CCOC(=O)Nc1c(O)ccc2oc(C)c(-c3ccccc3)c12
- IC50 [7]: 17.3 µM (active)

SMILES: COC(=O)CSc1nc2cc3c(cc2cc1C#N)OCO3
- EC50 [1]: 7.89 µM (active)
- EC50 [8]: 176 nM (active)
- EC50 [2]: 7.25 µM (active)
- EC50 [3]: 5.17 µM (active)

SMILES: Cc1cc(NC(=O)CN2C(=O)NC3(CCC(C)CC3)C2=O)no1 (stereo unspecified)
- EC50 [1]: > 79.4 µM (not active)
- EC50 [2]: > 79.4 µM (not active)
- EC50 [3]: > 79.4 µM (not active)

SMILES: O=C(NCc1cccs1)c1cc(-c2ccccc2)nc2ccccc12
- CC50 [9]: > 40 µM (active)

SMILES: O=S(=O)(CCSc1ccccn1)c1nc2ccccc2s1
- EC50 [5]: 8.47 µM (active)
- EC50 [6]: 6.03 µM (active)
- AC50 [10]: 5.68 µM (active)
- EC50 [11]: 9.21 µM (active)

SMILES: Cc1nc(SCC(=O)Nc2ccc(F)cc2)c2oc3ccccc3c2n1
- EC50 [1]: > 79.4 µM (not active)
- EC50 [2]: > 79.4 µM (not active)
- EC50 [3]: 9.31 µM (active)

SMILES: O=C(Nc1ccccc1NC(=O)c1c(F)c(F)c(F)c(F)c1F)c1c(F)c(F)c(F)c(F)c1F
- EC50 [5]: 17.1 µM (active)
- EC50 [6]: 12.5 µM (active)

SMILES: COc1ccc(S(=O)(=O)Nc2c(F)cccc2F)cc1
- EC50 [1]: > 79.4 µM (not active)
- EC50 [2]: > 79.4 µM (not active)
- EC50 [3]: > 79.4 µM (not active)

SMILES: COc1ccc(NC(=O)CSc2nccc(C)n2)cc1
- IC50 [7]: 20.3 µM (active)

SMILES: CCO[C@H]1OC(C(=O)NCc2nc3ccccc3[nH]2)=C[C@@H](c2ccc(C(F)(F)F)cc2)[C@@H]1CCCO
- CC50 [9]: > 40 µM (active)

SMILES: O=C1c2n[nH]c(-c3ccccc3O)c2C(c2ccc(F)cc2)N1Cc1ccco1 (stereo unspecified)
- EC50 [5]: 18.7 µM (active)
- EC50 [6]: 16.9 µM (active)

SMILES: Cn1cccc1-c1cc(C(=O)N/N=C/c2cc(Br)ccc2O)[nH]n1
- EC50 [12]: 8.69 µM (active)
- IC50 [13]: 13.4 µM (not active)
- AC50 [14]: 5.25 µM (active)
- EC50 [15]: > 350 µM (not active)

SMILES: Cc1ccc(NC(=O)ON=C2CCCC2)cc1
- EC50 [8]: 777 nM (active)
- IC50 [16]: 43.2 µM (active)
- EC50 [17]: 501 nM (active)
- EC50 [18]: > 120 µM (not active)
- EC50 [19]: 547 nM (active)
- EC50 [20]: 1.53 µM (active)

SMILES: NC(=NOCc1ccc([N+](=O)[O-])cc1)c1ccccn1
- EC50 [21]: 201 nM (active)
- IC50 [13]: > 39.8 µM (not active)
- IC50 [22]: > 80 µM (inactive)
- EC50 [23]: 143 nM (active)
- EC50 [24]: 223 nM (active)
- EC50 [25]: 9.46 µM (active)
- EC50 [26]: 7.95 µM (active)
